Values quoted from earlier work in article PMC9097188, “Design, Synthesis, and Molecular Modeling Studies of a Novel Benzimidazole as an Aromatase Inhibitor” (ACS Omega, 2022).

Target: aromatase
Conditions: 3D-QSAR data set, IC50 converted to pIC50; SI reference list; cited from earlier work
In the case of `Cc1ccc2nc(-c3ccc(-c4nnc5n4N=C(c4ccc(C#N)cc4)CS5)cc3)[nH]c2c1` [compound 81], the “Experimental pIC50” value is listed as 5.871. In the case of `COc1ccc(S(=O)(=O)NCCc2c(C(c3cc(OC)c(O)c(OC)c3)c3[nH]c4ccccc4c3CCNS(=O)(=O)c3ccc(OC)cc3)[nH]c3ccccc23)cc1` [compound 56], the “Experimental pIC50” value is listed as 5.602. For `O=[N+]([O-])c1ccccc1S(=O)(=O)NCCc1c(C(c2ccccc2O)c2[nH]c3ccccc3c2CCNS(=O)(=O)c2ccccc2[N+](=O)[O-])[nH]c2ccccc12` [compound 55], the “Experimental pIC50” value is given as 5.337. For `Cc1[nH]c2ccccc2c1C=NNc1cccc(Cl)c1` [compound 106], the “Experimental pIC50” value is listed as 4.718. In the case of `CCn1cc([C@H](c2ccc(F)cc2)n2ccnc2)c2cc(C#N)ccc21` [76S], the “Experimental pIC50” value is listed as 6.495. In the case of `CCn1cc([C@H](c2ccc(Cl)cc2Cl)n2cncn2)c2cc(Br)ccc21` [120R], the “Experimental pIC50” value is given as 6.206. For `CC(C)n1cc([C@H](c2ccc(F)cc2)n2ccnc2)c2cc(Br)ccc21` [78S], the “Experimental pIC50” value is given as 6.495. For `N#Cc1ccc(-n2cc(CO)c3ccccc32)cc1` [compound 111], the “Experimental pIC50” value is given as 7.301. For `O=S(=O)(Cc1ccccc1)NCCc1c[nH]c2ccccc12` [compound 64], the “Experimental pIC50” value is listed as 6.125. In the case of `Fc1ccccc1-n1cc(Cn2ccnc2)c2ccccc21` [compound 114], the “Experimental pIC50” value is given as 6.377. In the case of `CCn1cc([C@@H](c2ccc(Cl)cc2Cl)n2cncn2)c2cc(Br)ccc21` [120S], the “Experimental pIC50” value is given as 6.206. In the case of `Cc1ccc(S(=O)(=O)Nc2ccc3[nH]ccc3c2)cc1` [compound 63], the “Experimental pIC50” value is given as 6.796. For `O=S(=O)(NCCc1c(C(c2ccc(C(F)(F)F)cc2)c2[nH]c3ccccc3c2CCNS(=O)(=O)c2ccc(Br)cc2)[nH]c2ccccc12)c1ccc(Br)cc1` [compound 43], the “Experimental pIC50” value is given as 5.420. In the case of `N#Cc1ccc(C(c2ccc3[nH]ccc3c2)n2ccnc2)cc1` (stereo not drawn) [5S], the “Experimental pIC50” value is given as 7.714. In the case of `COc1ccc(S(=O)(=O)NCCc2c(C(c3ccccc3)c3[nH]c4ccccc4c3CCNS(=O)(=O)c3ccc(OC)cc3)[nH]c3ccccc23)cc1` [compound 31], the “Experimental pIC50” value is given as 5.456. For `O[C@@](c1cccnc1)(c1cc2ccccc2o1)c1ccc(Cl)cc1Cl` [87R], the “Experimental pIC50” value is listed as 5.658. In the case of `COc1ccc(-n2c(Cn3ccnc3)cc3ccc(C)cc32)cc1` [compound 17], the “Experimental pIC50” value is listed as 6.858. For `CC(C)n1cc([C@@H](c2ccc(F)cc2)n2ccnc2)c2cc(Br)ccc21` [78R], the “Experimental pIC50” value is given as 6.495. For `O=[N+]([O-])c1ccc(S(=O)(=O)NCCc2c(C(c3ccccc3O)c3[nH]c4ccccc4c3CCNS(=O)(=O)c3ccc([N+](=O)[O-])cc3)[nH]c3ccccc23)cc1` [compound 51], the “Experimental pIC50” value is listed as 5.553. For `Clc1ccccc1-n1cc(Cn2ccnc2)c2ccccc21` [compound 112], the “Experimental pIC50” value is listed as 6.762. In the case of `N#Cc1ccc(C2=Nn3c(nnc3-c3ccc(-c4nc5ccc(Cl)cc5[nH]4)cc3)SC2)cc1` [compound 103], the “Experimental pIC50” value is listed as 5.806. In the case of `O=S(=O)(NCCc1c(C(c2ccc3c(c2)Cc2ccccc2-3)c2[nH]c3ccccc3c2CCNS(=O)(=O)c2ccc(Cl)cc2)[nH]c2ccccc12)c1ccc(Cl)cc1` [compound 57], the “Experimental pIC50” value is given as 5.056. For `Cc1ccc2nc(-c3ccc(-c4nnc5n4N=C(c4ccc(F)cc4F)CS5)cc3)[nH]c2c1` [compound 82], the “Experimental pIC50” value is listed as 7.432. In the case of `O=[N+]([O-])c1cccc(S(=O)(=O)NCCc2c(C(c3ccccc3O)c3[nH]c4ccccc4c3CCNS(=O)(=O)c3cccc([N+](=O)[O-])c3)[nH]c3ccccc23)c1` [compound 54], the “Experimental pIC50” value is given as 5.770. For `O=S(=O)(NCCc1c(C(c2ccc(F)cc2)c2[nH]c3ccccc3c2CCNS(=O)(=O)c2ccc(Br)cc2)[nH]c2ccccc12)c1ccc(Br)cc1` [compound 40], the “Experimental pIC50” value is listed as 5.119. In the case of `Fc1ccc(C2=Nn3c(nnc3-c3ccc(-c4nc5ccccc5[nH]4)cc3)SC2)cc1` [compound 101], the “Experimental pIC50” value is given as 5.765. For `Cc1[nH]c2ccccc2c1C=NNc1ccc(Cl)cc1` [compound 107], the “Experimental pIC50” value is given as 5.062. In the case of `O=S(=O)(NCCc1c(C(c2ccc(Br)cc2)c2[nH]c3ccccc3c2CCNS(=O)(=O)c2ccc(Cl)cc2)[nH]c2ccccc12)c1ccc(Cl)cc1` [compound 38], the “Experimental pIC50” value is given as 5.569. For `Cc1ccc2cc(Cn3ccnc3)n(-c3ccccc3)c2c1` [compound 15], the “Experimental pIC50” value is listed as 7.670. For `O=S(=O)(NCCc1c(C(c2ccccc2O)c2[nH]c3ccccc3c2CCNS(=O)(=O)c2ccc(Cl)cc2)[nH]c2ccccc12)c1ccc(Cl)cc1` [compound 53], the “Experimental pIC50” value is listed as 5.377. For `Clc1cccc([C@H](c2ccc3[nH]ccc3c2)n2ccnc2)c1` [3S], the “Experimental pIC50” value is listed as 6.527. For `O=C1Nc2ccccc2C1(c1[nH]c2ccccc2c1CCNS(=O)(=O)c1ccc(Cl)cc1)c1[nH]c2ccccc2c1CCNS(=O)(=O)c1ccc(Cl)cc1` [compound 60], the “Experimental pIC50” value is listed as 5.081. In the case of `CCn1cc([C@@H](c2ccc(Cl)cc2Cl)n2cccc2)c2cc(Br)ccc21` [118S], the “Experimental pIC50” value is given as 6.478. For `O[C@](c1ccc(Br)cc1)(c1cccnc1)c1cc2ccccc2o1` [85R], the “Experimental pIC50” value is listed as 4.600. For `Cc1ccc2cc(Cn3ccnc3)n(-c3ccc(C#N)cc3)c2c1` [compound 19], the “Experimental pIC50” value is given as 7.568. For `CCn1c([C@H](c2ccc(F)cc2)n2ccnc2)c(C)c2ccccc21` [73S], the “Experimental pIC50” value is given as 6.921. In the case of `O=S(=O)(NCCc1c(C(c2ccc(F)cc2)c2[nH]c3ccccc3c2CCNS(=O)(=O)c2ccc(C(F)(F)F)cc2)[nH]c2ccccc12)c1ccc(C(F)(F)F)cc1` [compound 42], the “Experimental pIC50” value is listed as 5.357. In the case of `Cc1ccc2[nH]c(-c3ccc(-c4nnc5n4N=C(c4ccc(Cl)cc4)CS5)cc3)nc2c1` [compound 79], the “Experimental pIC50” value is listed as 5.927. In the case of `Fc1cccc(-n2cc(Cn3ccnc3)c3ccccc32)c1` [compound 115], the “Experimental pIC50” value is listed as 5.513. In the case of `Clc1cccc([C@@H](c2ccc3[nH]ccc3c2)n2ccnc2)c1` [3R], the “Experimental pIC50” value is listed as 6.527. In the case of `O=S(=O)(NCCc1c[nH]c2ccccc12)c1ccccc1` [compound 65], the “Experimental pIC50” value is given as 6.699. For `O=C1Nc2ccccc2C1(c1[nH]c2ccccc2c1CCNS(=O)(=O)c1cccc([N+](=O)[O-])c1)c1[nH]c2ccccc2c1CCNS(=O)(=O)c1cccc([N+](=O)[O-])c1` [compound 61], the “Experimental pIC50” value is listed as 4.924. For `CCn1cc([C@H](c2ccc(F)cc2)n2cncn2)c2cc(Br)ccc21` [119S], the “Experimental pIC50” value is listed as 6.016. For `N#Cc1ccc(C(c2[nH]c3ccccc3c2CCNS(=O)(=O)c2ccc(F)cc2)c2[nH]c3ccccc3c2CCNS(=O)(=O)c2ccc(F)cc2)cc1` [compound 36], the “Experimental pIC50” value is listed as 5.009. In the case of `OCc1cn(-c2cccc(F)c2)c2ccccc12` [compound 110], the “Experimental pIC50” value is listed as 7.086. In the case of `N#Cc1ccc(C(c2[nH]c3ccccc3c2CCNS(=O)(=O)c2ccc(Cl)cc2)c2[nH]c3ccccc3c2CCNS(=O)(=O)c2ccc(Cl)cc2)cc1` [compound 35], the “Experimental pIC50” value is listed as 5.260. In the case of `O[C@](c1cccnc1)(c1cc2ccccc2o1)c1ccc(Cl)cc1Cl` [87S], the “Experimental pIC50” value is listed as 5.658. In the case of `CCn1c([C@@H](c2ccc(F)cc2)n2ccnc2)c(C)c2ccccc21` [73R], the “Experimental pIC50” value is listed as 6.921. In the case of `COc1ccc(-n2c(Cn3ccnc3)cc3ccccc32)cc1` [compound 12], the “Experimental pIC50” value is given as 7.111. For `COc1ccc(S(=O)(=O)NCCc2c(C(c3ccccc3O)c3[nH]c4ccccc4c3CCNS(=O)(=O)c3ccc(OC)cc3)[nH]c3ccccc23)cc1` [compound 52], the “Experimental pIC50” value is listed as 6.097. For `CCn1cc([C@@H](c2ccccc2Cl)n2ccnc2)c2cc(Br)ccc21` [121S], the “Experimental pIC50” value is given as 6.009.
